The record followed here is ChEMBL document CHEMBL3608235, “Pyrroloaryls and pyrroloheteroaryls: Inhibitors of the HIV fusion/attachment, reverse transcriptase and integrase” (Bioorg Med Chem, 2015).

In data set [1] the test system is Human immunodeficiency virus 1. Kind of data set: Antiviral activity against CXCR4-tropic HIV1 LAI infected in human MT2 cells by monogram phenosense entry assay. It counts as functional, organism-based. The following applies: Human immunodeficiency virus 1, LAI.
Data set [2] concerns Human immunodeficiency virus 1. Kind of data set: Antiviral activity against CCR5-tropic HIV1 SF162 infected in human PM1 cells by monogram phenosense entry assay. Format: functional, organism-based. As to conditions: Human immunodeficiency virus 1, SF162, PM1.
Data set [3] concerns Human immunodeficiency virus 1. Kind of data set: Antiviral activity against CXCR4-tropic HIV1 MN infected in human MT2 cells by monogram phenosense entry assay. It counts as functional, organism-based. The following applies: Human immunodeficiency virus 1, MN.
Data set [4] deals with Human immunodeficiency virus 1. Kind of data set: Antiviral activity against CXCR4-tropic HIV1 NL4-3 infected in human MT2 cells by monogram phenosense entry assay. As to conditions: Human immunodeficiency virus 1, NL4-3, MT2. Format: functional, organism-based.
Data set [5] deals with Human immunodeficiency virus 1. The data set can be described thus: Antiviral activity against CCR5-tropic HIV1 BAL infected in human PM1 cells by monogram phenosense entry assay. The following applies: Human immunodeficiency virus 1, BAL. It counts as functional, organism-based.
Data set [6] has as its system Human immunodeficiency virus 1. The data set can be described thus: Antiviral activity against CXCR4-tropic HIV1 3B infected in human MT2 cells by monogram phenosense entry assay. The following applies: Human immunodeficiency virus 1, 3B. Format: functional, organism-based.
The subject of data set [7] is Human immunodeficiency virus 1. The data set can be described thus: Antiviral activity against CCR5-tropic HIV1 JRFL infected in human PM1 cells by monogram phenosense entry assay. Format: functional, organism-based. The following applies: Human immunodeficiency virus 1, JRFL.
The nature of data set [8]: Selectivity index, ratio of IC50 for human C8166 cells to EC50 for HIV1 3B infected in human C8166 cells. Format: toxicity, cell-based. As to conditions: C8166 cells (uninfected and HIV1 3B-infected), read-out: Ratio IC50/EC50.
Data set [9] in a line: Selectivity index, ratio of IC50 for human CEM-SS cells to EC50 for HIV1 infected in human CEM-SS cells. Format: toxicity, cell-based. The following applies: CEM-SS cells (uninfected and HIV1-infected), read-out: Ratio IC50/EC50.
Data set [10] in a line: Selectivity index, ratio of CC50 for mock-infected human MT4 cells to EC50 for HIV1 infected in human MT4 cells. Format: toxicity, cell-based. The following applies: MT4 cells (mock-infected and HIV1-infected), read-out: Ratio CC50/EC50.
Data set [11] concerns Human immunodeficiency virus 1. The data set can be described thus: Antiviral activity against HIV1 by XTT assay. It counts as functional, organism-based. (Formazan colour is commonly taken as a measure of viable cells.)
The subject of data set [12] is Human immunodeficiency virus. Kind of data set: Antiviral activity against HIV by syncytial plaque assay. Format: functional, organism-based. The following applies: Human immunodeficiency virus 1.
The subject of data set [13] is Human immunodeficiency virus 2. The data set can be described thus: Antiviral activity against HIV2 by XTT assay. Format: functional, organism-based.
Data set [14] relates to Human immunodeficiency virus 1. The data set can be described thus: Antiviral activity against HIV1 3B infected in human C8166 cells assessed as inhibition of virus replication. The following applies: Human immunodeficiency virus 1, 3B. It counts as functional, organism-based.
Another data set has as its system C8166. Kind of data set: Cytotoxicity against human C8166 cells. Format: cell-based. The following applies: Homo sapiens, C8166.

Where only a bound is given, the exact number is not on record here.

What is called EC50 is the concentration needed to bring the measured effect to its halfway point. As usually defined, the IC50 is the concentration that gives 50% inhibition.

`COc1cnc(-n2cnc(C)n2)c2[nH]cc(C(=O)C(=O)N3CCN(C(=O)c4ccccc4)CC3)c12` [TEMSAVIR]: the EC50 in [1] came out at 0.0007 µM; in [2], 0.0005 µM; in data set [3], 0.0148 µM; in data set [4] it was 0.0022 µM; in data set [5] it was 0.0017 µM; in data set [6] it was 0.0162 µM. In data set [7], this compound showed an EC50 of 0.0004 µM.
Consider `Cc1ccnc2c1NC(=O)c1cccnc1N2C1CC1` [NEVIRAPINE], for which the figures for the selectivity ratio in data set [8], in [9] and in data set [10] were above 250, 525 and above 800, respectively.
Consider `CN1N=C(N)c2cn([C@@H]3O[C@H](COP(=O)(O)O)[C@@H](O)[C@H]3O)c3ncnc1c23` [TRICIRIBINE PHOSPHATE], for which the IC50 in data set [11] is 0.02 µM; in [12], 0.01 µM; in data set [13], 0.02 µM.
As to `CCC1(c2cccc(OC)c2)Oc2ccccc2-n2cccc2C1=O` (stereo unspecified), in data set [8], the selectivity ratio was 212. For the same compound, the EC50 in data set [14] worked out at 0.033 µM. Moreover, the IC50 in the data set with C8166 amounted to 7 µM.
